The target of test [1] is T1, S1P1 (Homo sapiens, UniProt P21453). Briefly: Receptor binding assay, [33P]sphingosine 1-phosphate competition (SPA), S1P1. Conditions: 384 well-plate; read-out: S1P1 binding Ki (M) (384 well-plate). How it is done: Cells were suspended in 50 mM TRIS, pH 7.4, 2 mM EDTA, 250 mM Sucrose (buffer A) and 1× Complete protease inhibitor cocktail (Roche), and disrupted at 4° C. by N2 decompression using a cell disruption bomb (Parr Instrument). […] The pellet was then suspended in 10 mM HEPES, pH 7.4, 1 mM EDTA, 250 mM Sucrose (Buffer B), and 1× Complete EDTA-free protease inhibitor cocktail and homogenized using a potter. Membranes were flash frozen in liquid N2 and stored at −80° C.
[33P]sphingosine 1-phosphate (3000 Ci/mmol; American Radiolabeled Chemicals, Inc.) was added to test compounds in 20% DMSO by competition. […] Triplicate samples were averaged and normalized as percentage of inhibition relative to total binding (only DMSO in well) and non-specific binding (1000-fold excess of unlabeled S1P). Binding data were analyzed using the GraphPad Prism program or Genedata software.
Target sequence in this assay (P21453 whole entry, species assumed): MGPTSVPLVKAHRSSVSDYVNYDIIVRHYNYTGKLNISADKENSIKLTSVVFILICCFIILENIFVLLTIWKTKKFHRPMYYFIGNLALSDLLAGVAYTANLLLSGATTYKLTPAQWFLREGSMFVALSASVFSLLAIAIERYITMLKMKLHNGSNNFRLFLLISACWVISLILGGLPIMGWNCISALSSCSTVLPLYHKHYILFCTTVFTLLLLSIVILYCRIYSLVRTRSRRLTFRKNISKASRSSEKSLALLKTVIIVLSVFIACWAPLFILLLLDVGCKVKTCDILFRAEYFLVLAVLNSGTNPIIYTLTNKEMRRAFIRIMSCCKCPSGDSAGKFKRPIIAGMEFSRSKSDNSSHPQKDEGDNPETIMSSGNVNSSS

Test [2] addresses S1P3 (Homo sapiens, UniProt Q99500). Nature of the test: Receptor binding assay, [33P]sphingosine 1-phosphate competition (SPA), S1P3. Conditions: 384 well-plate; read-out: S1P3 binding Ki (M) (384 well-plate). How it is done:
Membranes were prepared from CHO cells expressing S1P1 or S1P3 for use in ligand and […] binding studies. Cells were suspended in 50 mM TRIS, pH 7.4, 2 mM EDTA, 250 mM Sucrose (buffer A) and 1× Complete protease inhibitor cocktail (Roche), and disrupted at 4° C. by N2 decompression using a cell disruption bomb (Parr Instrument). Following centrifugation at 1000 RPM for 10 min at 4° C., the supernatant was diluted (2×) in buffer A and centrifuged again at 19000 RPM for 75 min at 4° C. The pellet was then suspended in 10 mM HEPES, pH 7.4, 1 mM EDTA, 250 mM Sucrose (Buffer B), and 1× Complete EDTA-free protease inhibitor cocktail and homogenized using a potter. Membranes were flash frozen in liquid N2 and stored at −80° C.
[33P]sphingosine 1-phosphate (3000 Ci/mmol; American Radiolabeled Chemicals, Inc.) was added to test compounds in 20% DMSO by competition. Membranes and WGA SPA beads (GE Healthcare) were added to give a final volume of 100 μl in 96-well plates or 50 μl in 384-well plates with assay concentrations of 30 pM or 15 pM [33P]sphingosine 1-phosphate (respectively for S1P1 or S1P3), 50 mM HEPES, pH 7.5, 5 mM MgCl2, 100 mM NaCl, 0.4% fatty acid-free BSA, 1-5 μg/well of proteins in 96-well plates vs 0.6-1 μg/well of proteins in 384-well plates and 100 μg/well of WGA SPA beads in 96-well plates vs 75 μg/well of WGA SPA beads in 384-well plates. Binding was performed for 60 min at RT on a shaker and bound radioactivity was measured on a PerkinElmer 1450 MicroBeta counter. Triplicate samples were averaged and normalized as percentage of inhibition relative to total binding (only DMSO in well) and non-specific binding (1000-fold excess of unlabeled S1P). Binding data were analyzed using the GraphPad Prism program or Genedata software.

The target in test [3] is T1, S1P1. Briefly: S1P1 internalization assay in S1P1-U2OS cells (cell imaging). Conditions: U2OS cells expressing S1P1-EGFP, 1 hour. It is filed as cell-based. How it is done:
Cellular functional assays: Internalization of Sphingosine-1-phosphate receptor 1 (S1P1) in a human Cell line (U2OS) in a 384-well format using a Cell Imaging analysis.
The S1P1 internalization assay was performed in 384 well plates (Corning® 384 black with clear bottom 3712) using S1P1-U2OS cells from Biolmage (C039A), a human epithelial cell line (Human Bone Osteosarcoma Epithelial Cells). These cells expressed the human S1P1 Receptor fused to the green fluorescent protein (EGFP). A standard CMV promoter (cytomegalovirus promoter) controls the expression of S1P1-EGFP and continuous expression was maintained by addition of geneticin to the culture medium.
S1P1Receptor desensitization induced the internalization of the membrane-localized S1P1-EGFP fusion protein to endosomes, which can be monitored by cell imaging analysis. The cells are plated in low serum medium (Dulbecco's Modified Eagle Medium (DMEM) with Glutamax-1 and high glucose, 1% Penicillin/Streptomycin, 1% Fetal Calf Serum (FCS), 0.5 mg/ml Geneticin) overnight.
The next day, S1P1-U2OS cells are incubated in 20 μl serum free medium (DMEM with Glutamax-1 and high glucose, 0.1% of fatty-acid free Bovin Serum Albumin (BSA), 10 mM, N′-2-Hydroxyethylpiperazine-N′-2 ethanesulphonic acid (HEPES) 1M) for 2 hours at 37° C./5% CO2. The cells are then treated with 4 μl compounds/agonists (6×/3% DMSO) for a total volume of 24 μl, and plates are incubated for 1 hour at 37° C./5% CO2.
S1P1-U2OS cells are fixed with 25 μl Paraformaldehyde 8% and stained with Hoechst 33345 dye (1:1000) for 20 minutes.
They were then washed 3 times with Phosphate Buffered Saline (PBS) and plates are sealed. The internalization of the receptor S1P1-EGFP is measured on Cellomics by calculating the “spot count per object” (“object” corresponds to nuclear and “spot” corresponds to S1P1-EGFP receptor). Internalization data were observed thanks to vHCS View and analyzed using Genedata® software.
Target sequence in this assay (P21453 whole entry): as the sequence (P21453 whole entry, species assumed) above

Chain of S1P3 (Q99500 whole entry, species assumed): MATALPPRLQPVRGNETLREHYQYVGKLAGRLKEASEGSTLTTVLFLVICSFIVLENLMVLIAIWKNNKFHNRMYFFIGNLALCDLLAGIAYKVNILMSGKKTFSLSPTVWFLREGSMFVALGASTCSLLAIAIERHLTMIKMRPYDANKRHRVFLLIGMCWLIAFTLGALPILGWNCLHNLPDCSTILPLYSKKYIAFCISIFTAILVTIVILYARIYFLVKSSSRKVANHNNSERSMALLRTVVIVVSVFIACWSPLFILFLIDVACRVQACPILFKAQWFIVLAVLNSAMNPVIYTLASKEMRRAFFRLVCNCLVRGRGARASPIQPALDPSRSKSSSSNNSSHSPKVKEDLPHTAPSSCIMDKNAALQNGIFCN

Turning to `Cc1cc(-c2nc(-c3ccc(CN(C)CC(=O)O)c(F)c3)no2)ccc1-c1ccccc1C(F)(F)F` [Example 123, N-(2-fluoro-4-{5-[2-methyl-2′-(trifluoromethyl)biphenyl-4-yl]-1,2,4-oxadiazol-3-yl}benzyl)-N-methylglycine], the Ki (as a rule, a measure of affinity in units of concentration, obtained from inhibition or displacement) came out at 3.46e-09 M in test [1] and 6.9e-06 M in test [2]. Further, a half-maximal response in test [3] (EC50) required 30.4 nM.
On the same counts, the results for `Cc1ccccc1-c1ccc(-c2nc(-c3ccc(CN(C)CC(=O)O)c(Cl)c3)no2)cc1C(F)(F)F` [Example 129, 2-((4-(5-(2-(trifluoromethyl)-2′-methylbiphenyl-4-yl)-1,2,4-oxadiazol-3-yl)-2-chlorobenzyl)(methyl)amino)acetic acid] are 5.33e-09 M, 9.76e-07 M and 23.3 nM.
On the same counts, the results for `CN(CC(=O)O)Cc1ccc(-c2noc(-c3ccc(-c4ccccc4C(F)(F)F)c(Cl)c3)n2)cc1F` [Example 134, N-(4-{5-[2-chloro-2′-(trifluoromethyl)biphenyl-4-yl]-1,2,4-oxadiazol-3-yl}-2-fluorobenzyl)-N-methylglycine] are 4.07e-09 M, 1.8e-05 M and 37.3 nM.
`CN(CC(=O)O)Cc1cc(F)cc(-c2noc(-c3ccc(-c4ccccc4C(F)(F)F)c(Cl)c3)n2)c1` [Example 136, N-(3-{5-[2-chloro-2′-(trifluoromethyl)biphenyl-4-yl]-1,2,4-oxadiazol-3-yl}-5-fluorobenzyl)-N-methylglycine]: the Ki in test [1] stood at 4.27e-09 M; in test [2] it was 2.32e-06 M. In addition, in test [3], a half-maximal effect (EC50) was put at 40.9 nM.
The matching figures for `COCCN(CC(=O)O)Cc1ccc(-c2noc(-c3ccc(-c4ccccc4C)c(C(F)(F)F)c3)n2)cc1` [Example 138, N-(2-methoxyethyl)-N-(4-{5-[2′-methyl-2-(trifluoromethyl)biphenyl-4-yl]-1,2,4-oxadiazol-3-yl}benzyl)glycine]: 5.16e-09 M, 4.79e-07 M and 26.1 nM.
On the same counts, the results for `Cc1ccccc1-c1ccc(-c2nc(-c3ccc(CN(C)CC(=O)O)cc3Cl)no2)cc1C(F)(F)F` [Example 145, 2-((4-(5-(2-(trifluoromethyl)-2′-methylbiphenyl-4-yl)-1,2,4-oxadiazol-3-yl)-3-chlorobenzyl)(methyl)amino)acetic acid] are 2.22e-09 M, 2.85e-07 M and 9.44 nM.
The matching figures for `Cc1ccccc1-c1ccc(-c2nc(-c3cc(F)c(CN(C)CC(=O)O)c(F)c3)no2)cc1C(F)(F)F` [Example 148, 2-((2,6-difluoro-4-(5-(2′-methyl-2-(trifluoromethyl)biphenyl-4-yl)-1,2,4-oxadiazol-3-yl)benzyl)(methyl)amino)acetic acid]: 2.38e-09 M, 8.34e-07 M and 24.7 nM.
On to `Cc1ccccc1-c1ccc(-c2nc(-c3ccc(CN(C)CC(=O)O)c(F)c3F)no2)cc1C(F)(F)F` [Example 150, 2-((2,3-difluoro-4-(5-(2-(trifluoromethyl)-2′-methylbiphenyl-4-yl)-1,2,4-oxadiazol-3-yl)benzyl)(methyl)amino)acetic acid], for which the results for the Ki in test [1] and in test [2] were 2.07e-09 M and 2.97e-07 M, respectively. The EC50 (in general, the concentration at which the effect is half-maximal) in test [3] is 18 nM.
On the same counts, the results for `Cc1cc(-c2nc(-c3ccc(CN(C)CC(=O)O)c(F)c3F)no2)ccc1-c1ccccc1C(F)(F)F` [Example 152, 2-((2,3-difluoro-4-(5-(2-methyl-2′-(trifluoromethyl)biphenyl-4-yl)-1,2,4-oxadiazol-3-yl)benzyl)(methyl)amino)acetic acid] are 3.71e-09 M, 1.25e-05 M and 68.4 nM.
`Cc1cc(-c2nc(-c3ccc(CN(C)CC(=O)O)cc3Cl)no2)ccc1-c1ccccc1C(F)(F)F` [Example 153, 2-((3-chloro-4-(5-(2-methyl-2′-(trifluoromethyl)biphenyl-4-yl)-1,2,4-oxadiazol-3-yl)benzyl)(methyl)amino)acetic acid]: the Ki stood at 3.32e-09 M in test [1] and 7.5e-06 M in test [2]. This compound also came in with a concentration giving a half-maximal response (EC50) in test [3] of 50.9 nM.

These data come from patent US8802704B2, “Oxadiazole derivatives” (Merck Serono SA, priority 2009, dated 2014).
